Data on 27 compounds can be found in patent US11332459B2 (TEIJIN PHARMA LIMITED, priority 2017, dated 2022).

SMILES strings stand for the structures. A value given as a limit tells only on which side of the number the result lay.

The assay deals with T1, human TRPC6 (Homo sapiens, UniProt Q9Y210).
T1 construct: expressed in transfected cells
T1 sequence (Q9Y210 1-931): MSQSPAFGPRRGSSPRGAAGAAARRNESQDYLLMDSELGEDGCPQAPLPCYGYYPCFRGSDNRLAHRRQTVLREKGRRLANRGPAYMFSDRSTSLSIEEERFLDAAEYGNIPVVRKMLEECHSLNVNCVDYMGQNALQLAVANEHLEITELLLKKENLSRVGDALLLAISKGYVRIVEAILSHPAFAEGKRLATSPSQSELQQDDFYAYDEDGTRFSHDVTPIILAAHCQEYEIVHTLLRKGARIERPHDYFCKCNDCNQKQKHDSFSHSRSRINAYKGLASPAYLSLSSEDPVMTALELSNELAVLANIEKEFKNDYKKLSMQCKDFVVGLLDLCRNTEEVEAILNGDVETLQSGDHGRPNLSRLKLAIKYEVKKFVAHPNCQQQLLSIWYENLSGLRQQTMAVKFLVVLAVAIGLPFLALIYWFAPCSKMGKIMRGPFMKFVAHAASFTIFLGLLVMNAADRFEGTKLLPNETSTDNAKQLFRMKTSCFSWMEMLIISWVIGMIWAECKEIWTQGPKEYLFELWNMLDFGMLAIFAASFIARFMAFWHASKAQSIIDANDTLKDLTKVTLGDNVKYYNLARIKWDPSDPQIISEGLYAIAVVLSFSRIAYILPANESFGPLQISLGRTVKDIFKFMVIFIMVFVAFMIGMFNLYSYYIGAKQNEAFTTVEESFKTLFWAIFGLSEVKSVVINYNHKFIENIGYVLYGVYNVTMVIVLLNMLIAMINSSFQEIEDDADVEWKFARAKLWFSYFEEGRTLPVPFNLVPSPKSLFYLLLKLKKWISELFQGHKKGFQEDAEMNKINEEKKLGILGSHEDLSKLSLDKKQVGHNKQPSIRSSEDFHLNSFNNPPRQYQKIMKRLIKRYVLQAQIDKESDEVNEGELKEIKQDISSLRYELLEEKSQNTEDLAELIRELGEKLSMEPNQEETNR
The assay is described as follows: TRPC6 calcium flux assay (FLIPR, OAG-stimulated calcium influx). Format: cell-based. The note with it: HEK293 cells stably transfected with human TRPC6, read-out: hTRPC6 Potency. The method in brief: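 IC50 derived by plotting background-corrected peak fluorescence (180 s window, normalized to OAG-triggered signal vs buffer) against dose. Stable human TRPC6 HEK293 line was dye-loaded, exposed to compound 25 min, then challenged with 50 uM final OAG in 2 mM Ca2+ HEPES buffer pH 7.2, 0.5% DMSO.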
In the case of `C[C@H](c1ccc(Cl)cc1Cl)n1c(N2CC[C@@H](F)[C@H](N)C2)nc2cc(F)c(F)cc21` [Example 322, (3R,4R)-1-(1-((1R)-1-(2,4-dichlorophenyl)ethyl)-5,6-difluoro-1H-benzimidazol-2-yl)-4-fluoro-3-piperidinamine], the IC50 worked out at 1450 nM.

On to `C[C@@H](c1ccc(Cl)cc1Cl)n1c(N2CC[C@@H](F)[C@H](N)C2)nc2cc(F)c(F)cc21` [Example 323, (3R,4R)-1-(1-((1S)-1-(2,4-dichlorophenyl)ethyl)-5,6-difluoro-1H-benzimidazol-2-yl)-4-fluoro-3-piperidinamine], for which the IC50 was above 3750 nM.

`C[C@H](c1ccccc1Cl)n1c(N2CC[C@@H](F)[C@H](N)C2)nc2cc(F)c(F)cc21` [Example 324, (3R,4R)-1-(1-((1R)-1-(2-chlorophenyl)ethyl)-5,6-difluoro-1H-benzimidazol-2-yl)-4-fluoro-3-piperidinamine]: the IC50 was above 3750 nM.

Consider `C[C@@H](c1ccccc1Cl)n1c(N2CC[C@@H](F)[C@H](N)C2)nc2cc(F)c(F)cc21` [Example 325, (3R,4R)-1-(1-((1S)-1-(2-chlorophenyl)ethyl)-5,6-difluoro-1H-benzimidazol-2-yl)-4-fluoro-3-piperidinamine], for which the IC50 is 743 nM.

For `C[C@H](c1cccc(Cl)c1)n1c(N2CC[C@@H](F)[C@H](N)C2)nc2cc(F)c(F)cc21` [Example 326, (3R,4R)-1-(1-((1R)-1-(3-chlorophenyl)ethyl)-5,6-difluoro-1H-benzimidazol-2-yl)-4-fluoro-3-piperidinamine], the IC50 is 2930 nM.

As to `C[C@@H](c1cccc(Cl)c1)n1c(N2CC[C@@H](F)[C@H](N)C2)nc2cc(F)c(F)cc21` [Example 327, (3R,4R)-1-(1-((1S)-1-(3-chlorophenyl)ethyl)-5,6-difluoro-1H-benzimidazol-2-yl)-4-fluoro-3-piperidinamine], the IC50 was 1370 nM.

Consider `C[C@H](c1cc(Cl)ccc1Cl)n1c(N2CC[C@@H](F)[C@H](N)C2)nc2cc(F)c(F)cc21` [Example 328, (3R,4R)-1-(1-((1R)-1-(2,5-dichlorophenyl)ethyl)-5,6-difluoro-1H-benzimidazol-2-yl)-4-fluoro-3-piperidinamine], for which the IC50 was above 3750 nM.

Turning to `C[C@@H](c1cc(Cl)ccc1Cl)n1c(N2CC[C@@H](F)[C@H](N)C2)nc2cc(F)c(F)cc21` [Example 329, (3R,4R)-1-(1-((1S)-1-(2,5-dichlorophenyl)ethyl)-5,6-difluoro-1H-benzimidazol-2-yl)-4-fluoro-3-piperidinamine], the IC50 was above 3750 nM.

Regarding `C[C@H](c1ccc(F)cc1F)n1c(N2CC[C@@H](F)[C@H](N)C2)nc2cc(F)c(F)cc21` [Example 330, (3R,4R)-1-(1-((1R)-1-(2,4-difluorophenyl)ethyl)-5,6-difluoro-1H-benzimidazol-2-yl)-4-fluoro-3-piperidinamine], the IC50 came out at 669 nM.

As for `C[C@@H](c1ccc(F)cc1F)n1c(N2CC[C@@H](F)[C@H](N)C2)nc2cc(F)c(F)cc21` [Example 331, (3R,4R)-1-(1-((1S)-1-(2,4-difluorophenyl)ethyl)-5,6-difluoro-1H-benzimidazol-2-yl)-4-fluoro-3-piperidinamine], the IC50 came out at 204 nM.

As to `C[C@H](c1ccc(Cl)c(Cl)c1)n1c(N2CC[C@@H](F)[C@H](N)C2)nc2cc(F)c(F)cc21` [Example 332, (3R,4R)-1-(1-((1R)-1-(3,4-dichlorophenyl)ethyl)-5,6-difluoro-1H-benzimidazol-2-yl)-4-fluoro-3-piperidinamine], the IC50 was found to be 3200 nM.

On to `C[C@@H](c1ccc(Cl)c(Cl)c1)n1c(N2CC[C@@H](F)[C@H](N)C2)nc2cc(F)c(F)cc21` [Example 333, (3R,4R)-1-(1-((1S)-1-(3,4-dichlorophenyl)ethyl)-5,6-difluoro-1H-benzimidazol-2-yl)-4-fluoro-3-piperidinamine], for which the IC50 came to 3250 nM.

For `C[C@H](c1cc(F)ccc1F)n1c(N2CC[C@@H](F)[C@H](N)C2)nc2cc(F)c(F)cc21` [Example 334, (3R,4R)-1-(1-((1R)-(2,5-difluorophenyl)ethyl)-5,6-difluoro-1H-benzimidazol-2-yl)-4-fluoro-3-piperidinamine], the IC50 was determined as 3540 nM.

Regarding `C[C@@H](c1cc(F)ccc1F)n1c(N2CC[C@@H](F)[C@H](N)C2)nc2cc(F)c(F)cc21` [Example 335, (3R,4R)-1-(1-((1S)-1-(2,5-difluorophenyl)ethyl)-5,6-difluoro-1H-benzimidazol-2-yl)-4-fluoro-3-piperidinamine], the IC50 was above 3750 nM.

`C[C@H](c1ccc(C(F)(F)F)cc1)n1c(N2CC[C@@H](F)[C@H](N)C2)nc2cc(F)c(F)cc21` [Example 336, (3R,4R)-1-(5,6-difluoro-1-((1R)-1-(4-(trifluoromethyl)phenyl)ethyl)-1H-benzimidazol-2-yl)-4-fluoro-3-piperidinamine]: the IC50 was above 3750 nM.

On to `C[C@H](c1ccc(OC(F)(F)F)cc1)n1c(N2CC[C@@H](F)[C@H](N)C2)nc2cc(F)c(F)cc21` [Example 337, (3R,4R)-1-(5,6-difluoro-1-((1R)-1-(4-(trifluoromethoxy)phenyl)ethyl)-1H-benzimidazol-2-yl)-4-fluoro-3-piperidinamine], for which the IC50 is above 3750 nM.

Take `N[C@@H]1CN(c2nc3cc(F)c(F)cc3n2Cc2cc(Cl)ccc2OC(F)(F)F)CC[C@H]1F` [Example 338, (3R,4R)-1-(1-(5-chloro-2-2-(trifluoromethoxy)benzyl)-5,6-difluoro-1H-benzimidazol-2-yl)-4-fluoro-3-piperidinamine]: the IC50 is above 3750 nM.

As for `N[C@@H]1CN(c2nc3cc(F)c(F)cc3n2Cc2ccc(-n3cncn3)cc2)CC[C@H]1F` [Example 339, (3R,4R)-1-(5,6-difluoro-1-(4-(1H-1,2,4-triazol-1-yl)benzyl)-1H-benzimidazol-2-yl)-4-fluoro-3-piperidinamine], the IC50 amounted to 3.23 nM.

With `N#Cc1cc(Cl)ccc1Cn1c(N2CC[C@@H](F)[C@H](N)C2)nc2cc(F)c(F)cc21` [Example 340, 2-((2-((3R,4R)-3-amino-4-fluoro-1-piperidinyl)-5,6-difluoro-1H-benzimidazol-1-yl)methyl)-5-chlorobenzonitrile], the IC50 was determined as 0.704 nM.

For `N[C@@H]1CN(c2nc3cc(F)c(F)cc3n2Cc2ccc(Cl)cc2Cl)CC[C@H]1F` [Example 341, (3R,4R)-1-(1-(2,4-dichlorobenzyl)-5,6-difluoro-1H-benzimidazol-2-yl)-4-fluoro-3-piperidinamine], the IC50 is 25.8 nM.

Take `N#Cc1ccc(Cn2c(N3CC[C@@H](F)[C@H](N)C3)nc3cc(F)c(F)cc32)c(OC(F)F)c1` [Example 342, 4-((2-((3R,4R)-3-amino-4-fluoro-1-piperidinyl)-5,6-difluoro-1H-benzimidazol-1-yl)methyl)-3-(difluoromethoxy)benzo-nitrile]: the IC50 turned out to be 12.1 nM.

For the compound `N[C@@H]1CN(c2nc3cc(F)c(F)cc3n2Cc2cc(Cl)ccc2Cl)CC[C@H]1F` [Example 343, (3R,4R)-1-(1-(2,5-dichlorobenzyl)-5,6-difluoro-1H-benzimidazol-2-yl)-4-fluoro-3-piperidinamine], the IC50 is 804 nM.

For the compound `CC(F)(F)c1ccc(Cn2c(N3CC[C@@H](F)[C@H](N)C3)nc3cc(F)c(F)cc32)cc1` [Example 344, (3R,4R)-1-(1-(4-(1,1-difluoroethyl)benzyl)-5,6-difluoro-1H-benzimidazol-2-yl)-4-fluoro-3-piperidinamine], the IC50 came out at 85.3 nM.

As to `N#Cc1ccc(Cn2c(N3CC[C@@H](F)[C@H](N)C3)nc3cc(F)c(F)cc32)cc1Cl` [Example 346, 4-((2-((3R,4R)-3-amino-4-fluoro-1-piperidinyl)-5,6-difluoro-1H-benzimidazol-1-yl)methyl)-2-chlorobenzonitrile], the IC50 is 1.39 nM.

Consider `N#Cc1ccc(Cl)cc1Cn1c(N2CC[C@@H](F)[C@H](N)C2)nc2cc(F)c(F)cc21` [Example 347, 2-((2-((3R,4R)-3-amino-4-fluoro-1-piperidinyl)-5,6-difluoro-1H-benzimidazol-1-yl)methyl)-4-chlorobenzonitrile], for which the IC50 was 1.07 nM.

Turning to `N[C@@H]1CN(c2nc3cc(F)c(F)cc3n2Cc2ccccc2OC(F)F)CC[C@H]1F` [Example 348, (3R,4R)-1-(1-(2-(difluoromethoxy)benzyl)-5,6-difluoro-1H-benzimidazol-2-yl)-4-fluoro-3-piperidinamine], the IC50 was determined as 493 nM.

For the compound `N[C@@H]1CN(c2nc3cc(F)c(F)cc3n2Cc2ccc(F)c(Cl)c2)CC[C@H]1F` [Example 349, (3R,4R)-1-(1-(3-chloro-4-fluorobenzyl)-5,6-difluoro-1H-benzimidazol-2-yl)-4-fluoro-3-piperidinamine], the IC50 was 215 nM.
